Measured values: PubChem BioAssay (NCI)
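Protocol summary: plate cells (96-well), add compound at 5 concentrations, incubate 48 h, interpolate endpoints linearly. TGI: total growth inhibition.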

How the values were obtained:
Assay in all cases: NCI anticancer screen, dose series, 48 h
SK-OV-3 ovarian = tested on: SK-OV-3 ovarian
RXF 393 renal = tested on: RXF 393 renal
HS 578T breast = tested on: HS 578T breast
KM12 colon = tested on: KM12 colon
U251 CNS = tested on: U251 CNS
CAKI-1 renal = tested on: CAKI-1 renal
NCI-H23 lung = tested on: NCI-H23 lung
A549 NSCLC = tested on: A549 NSCLC
UACC-257 melanoma = tested on: UACC-257 melanoma
SN12C renal = tested on: SN12C renal
MDA-MB-435 = tested on: MDA-MB-435
786-0 renal = tested on: 786-0 renal
SK-MEL-2 melanoma = tested on: SK-MEL-2 melanoma
MDA-N = tested on: MDA-N
MALME-3M melanoma = tested on: MALME-3M melanoma
NCI-H460 lung = tested on: NCI-H460 lung
COLO 205 colon = tested on: COLO 205 colon
ACHN renal = tested on: ACHN renal
IGROV1 ovarian = tested on: IGROV1 ovarian
SF-295 CNS = tested on: SF-295 CNS
PC-3 prostate = tested on: PC-3 prostate
OVCAR-3 ovarian = tested on: OVCAR-3 ovarian
OVCAR-4 ovarian = tested on: OVCAR-4 ovarian
SK-MEL-28 melanoma = tested on: SK-MEL-28 melanoma
NCI/ADR-RES ovarian = tested on: NCI/ADR-RES ovarian
HOP-62 NSCLC = tested on: HOP-62 NSCLC
T-47D breast = tested on: T-47D breast
NCI-H522 lung = tested on: NCI-H522 lung
RPMI-8226 leukemia = tested on: RPMI-8226 leukemia
SW-620 colon = tested on: SW-620 colon
SF-539 CNS = tested on: SF-539 CNS
TK-10 renal = tested on: TK-10 renal
UACC-62 melanoma = tested on: UACC-62 melanoma
HOP-92 NSCLC = tested on: HOP-92 NSCLC
HT29 colon = tested on: HT29 colon
K-562 leukemia = tested on: K-562 leukemia
A498 renal = tested on: A498 renal
OVCAR-8 ovarian = tested on: OVCAR-8 ovarian
M14 melanoma = tested on: M14 melanoma
EKVX NSCLC = tested on: EKVX NSCLC
DU-145 prostate = tested on: DU-145 prostate
SF-268 CNS = tested on: SF-268 CNS
NCI-H226 lung = tested on: NCI-H226 lung
MCF7 breast = tested on: MCF7 breast
UO-31 renal = tested on: UO-31 renal
SNB-75 CNS = tested on: SNB-75 CNS
OVCAR-5 ovarian = tested on: OVCAR-5 ovarian
HCT-15 colon = tested on: HCT-15 colon
SNB-19 CNS = tested on: SNB-19 CNS
HCT-116 colon = tested on: HCT-116 colon
SK-MEL-5 melanoma = tested on: SK-MEL-5 melanoma
BT-549 breast = tested on: BT-549 breast
MDA-MB-231 breast = tested on: MDA-MB-231 breast
HCC-2998 colon = tested on: HCC-2998 colon
LOX IMVI melanoma = tested on: LOX IMVI melanoma
CCRF-CEM leukemia = tested on: CCRF-CEM leukemia

SMILES: CCc1ncc(CO)n1Cc1cccc2ccccc12
- TGI (SK-OV-3 ovarian): > 100 µM
- TGI (RXF 393 renal): > 100 µM
- TGI (HS 578T breast): > 100 µM
- TGI (KM12 colon): > 100 µM
- TGI (U251 CNS): > 100 µM
- TGI (CAKI-1 renal): > 100 µM
- TGI (NCI-H23 lung): > 100 µM
- TGI (A549 NSCLC): > 100 µM
- TGI (UACC-257 melanoma): > 100 µM
- TGI (SN12C renal): > 100 µM
- TGI (MDA-MB-435): > 100 µM
- TGI (786-0 renal): > 100 µM
- TGI (SK-MEL-2 melanoma): > 100 µM
- TGI (MDA-N): > 100 µM
- TGI (MALME-3M melanoma): > 100 µM
- TGI (NCI-H460 lung): > 100 µM
- TGI (COLO 205 colon): > 100 µM
- TGI (ACHN renal): > 100 µM
- TGI (IGROV1 ovarian): > 100 µM
- TGI (SF-295 CNS): > 100 µM
- TGI (PC-3 prostate): > 100 µM
- TGI (OVCAR-3 ovarian): > 100 µM
- TGI (OVCAR-4 ovarian): > 100 µM
- TGI (SK-MEL-28 melanoma): > 100 µM
- TGI (NCI/ADR-RES ovarian): > 100 µM
- TGI (HOP-62 NSCLC): > 100 µM
- TGI (T-47D breast): > 100 µM
- TGI (NCI-H522 lung): > 100 µM
- TGI (RPMI-8226 leukemia): > 100 µM
- TGI (SW-620 colon): > 100 µM
- TGI (SF-539 CNS): > 100 µM
- TGI (TK-10 renal): > 100 µM
- TGI (UACC-62 melanoma): > 100 µM
- TGI (HOP-92 NSCLC): > 100 µM
- TGI (HT29 colon): > 100 µM
- TGI (K-562 leukemia): > 100 µM
- TGI (A498 renal): > 100 µM
- TGI (OVCAR-8 ovarian): > 100 µM
- TGI (M14 melanoma): > 100 µM
- TGI (EKVX NSCLC): > 100 µM
- TGI (DU-145 prostate): > 100 µM
- TGI (SF-268 CNS): > 100 µM
- TGI (NCI-H226 lung): > 100 µM
- TGI (MCF7 breast): > 100 µM
- TGI (UO-31 renal): > 100 µM
- TGI (SNB-75 CNS): > 100 µM
- TGI (OVCAR-5 ovarian): > 100 µM
- TGI (HCT-15 colon): > 100 µM
- TGI (SNB-19 CNS): > 100 µM
- TGI (HCT-116 colon): > 100 µM
- TGI (SK-MEL-5 melanoma): > 100 µM
- TGI (BT-549 breast): > 100 µM
- TGI (MDA-MB-231 breast): > 100 µM

SMILES: Cn1cnc(C(=N)[Se])c1N
- TGI (SK-OV-3 ovarian): 2.3 µM
- TGI (HS 578T breast): > 26.4 µM
- TGI (KM12 colon): > 28.8 µM
- TGI (CAKI-1 renal): 60.9 µM
- TGI (NCI-H23 lung): > 27.1 µM
- TGI (A549 NSCLC): > 100 µM
- TGI (HCC-2998 colon): > 100 µM
- TGI (UACC-257 melanoma): > 100 µM
- TGI (LOX IMVI melanoma): > 100 µM
- TGI (MDA-MB-435): > 100 µM
- TGI (MDA-N): > 100 µM
- TGI (MALME-3M melanoma): 8.89 µM
- TGI (NCI-H460 lung): 1.55 µM
- TGI (PC-3 prostate): 14.9 µM
- TGI (SK-MEL-28 melanoma): > 100 µM
- TGI (NCI/ADR-RES ovarian): 3.15 µM
- TGI (HOP-62 NSCLC): > 23.4 µM
- TGI (T-47D breast): > 100 µM
- TGI (RPMI-8226 leukemia): 6.95 µM
- TGI (SW-620 colon): > 100 µM
- TGI (SF-539 CNS): 4.18 µM
- TGI (TK-10 renal): > 24.8 µM
- TGI (HOP-92 NSCLC): > 100 µM
- TGI (HT29 colon): > 100 µM
- TGI (A498 renal): > 28.6 µM
- TGI (OVCAR-8 ovarian): 3.31 µM
- TGI (M14 melanoma): > 100 µM
- TGI (DU-145 prostate): > 100 µM
- TGI (SF-268 CNS): 4.94 µM
- TGI (NCI-H226 lung): 12.5 µM
- TGI (MCF7 breast): > 29.3 µM
- TGI (SNB-75 CNS): 4.38 µM
- TGI (OVCAR-5 ovarian): > 100 µM
- TGI (HCT-15 colon): > 100 µM
- TGI (SNB-19 CNS): > 28 µM
- TGI (HCT-116 colon): > 100 µM
- TGI (SK-MEL-5 melanoma): > 100 µM
- TGI (CCRF-CEM leukemia): 6.26 µM
